Key:
[1] = cited from earlier work
[2] = test system: central nervous system pathologies; conditions: brain edema, cranial trauma, cerebral ischemia, chronic cerebrovascular diseases, Parkinson's disease; cited from earlier work
[3] = in vivo, po
Method: Blood samples (0.5 ml) were withdrawn at intervals of 1, 2, 3, and 4 hours after ingestion of the compound and were processed for subsequent determination of plasma uridine content by HPLC. On a separate day, the same procedure was carried out, except that an equal molar dose (18 mg/kg--1.3 grams in a 70 kilogram subject) of uridine was ingested instead of the acyl derivative.

[4] = Bioavailability of uridine and acyl uridine derivatives in rats (plasma by HPLC); format: in vivo, male F344 rats; conditions: rat, intubation into stomach, 0.28 moles/kg (printed), for at least four hours following ingestion
Excerpt: Silastic catheters were implanted into the right jugular veins of anesthetized male F344 rats (Retired Breeders, 450-500 grams). After three days of recovery from surgery, the animals were placed in deep cylindrical cages, and their catheters were extended with a lengthened polyvinyl tubing, so that blood samples would be withdrawn without disturbing the rats. Basal blood samples were taken and the animals were divided into four groups, each containing four rats.

[5] = test system: adrenalin-induced myocardial necrosis; conditions: cited from earlier work; for mortality and myocardial function: ECG readings, biochemical findings, relative heart weight
isolated dog heart = conditions: cited from earlier work
isolated rat heart = conditions: cited from earlier work
brain = conditions: in vivo; cited from earlier work
[6] = test system: pyrimidine nucleoside phosphorylases; conditions: rat, in vivo; cited from earlier work
skeletal muscles = conditions: rat, in vivo; cited from earlier work
atrial tissue = conditions: in vitro; cited from earlier work
[7] = test system: tyrosine-alpha-ketoglutarate; conditions: alone or in various combinations; cited from earlier work
adipose tissue = conditions: cited from earlier work
[8] = test system: isolated rat diaphragm muscle; conditions: cited from earlier work
myocardial glycogen = conditions: cited from earlier work; for myocardial glycogen: intravenous infusion
liver function = conditions: in vivo; cited from earlier work
[9] = test system: adrenalin-induced myocardial dystrophy; conditions: rat, in vivo; cited from earlier work
[10] = test system: skeletal and cardiac muscle; conditions: cited from earlier work
[11] = cited from earlier work; remark: listed apart in the source
isolated rat hearts [12] = conditions: reperfusion after low-flow ischemia; cited from earlier work
[13] = test system: experimentally-induced seizures; conditions: intraperitoneal injection; cited from earlier work
[14] = test system: isolated, perfused rat liver; conditions: in a single passage; cited from earlier work
hepatocytes = conditions: cited from earlier work
isolated rat hearts [15] = conditions: cited from earlier work
heart = conditions: cited from earlier work
myocardium = conditions: pretreatment; 2 hours after aortic stenosis; cited from earlier work
isolated rabbit hearts = conditions: cited from earlier work

In the case of `C[N+](C)(C)CCOP(=O)(O)OP(=O)([O-])OC[C@H]1O[C@@H](n2ccc(N)nc2=O)[C@H](O)[C@@H]1O` [CDP-choline, cytidine-diphosphocholine], the “time of breakdown to cytidine and choline” value ([1]; intravenous injection) is given as at most 30 s, the “intact compound in circulation” value ([1]; oral) is given as “no intact CDP-choline enters the circulation” and the “plasma cytidine and choline concentrations” value ([1]; oral) is given as “rise”. The degradation following administration ([1]; yielding cytidine, choline, and phosphate) was “very rapidly degraded” and the therapeutic efficacy [2] was “Therapeutic efficacy has been documented”.
For `CC(=O)OC[C@H]1O[C@@H](n2ccc(=O)[nH]c2=O)[C@H](OC(C)=O)[C@@H]1OC(C)=O` [TAU, 2',3',5'-tri-O-acetyl uridine], the “plasma level of uridine vs equal molar dose of uridine” value [3] was “substantially higher”, the plasma uridine level [3] was “exceeded 10 micromolar” and the “time uridine levels sustained in the useful therapeutic range” value [3] was “at least four”. For the same compound, the “plasma levels of uridine vs equimolar dose of uridine” value [4] was “significantly higher for at least four hours”.
In the case of `O=c1ccn([C@@H]2O[C@H](COP(=O)([O-])[O-])[C@@H](O)[C@H]2O)c(=O)[nH]1.[Na+].[Na+]` [UMP, Sodium uridine monophosphate], the “mortality and myocardial function” value [5] is listed as “reduced mortality and improved myocardial function”, the “prophylactic effect vs potassium orotate” value ([5]; in vivo) is listed as “more pronounced prophylactic effect” and the “resistance to adrenalin-induced myocardial necrosis” value ([5]; in vivo) is listed as “increase the animal's resistance”.
In the case of `Nc1ncnc2c1ncn2[C@@H]1O[C@H](CO)[C@@H](O)[C@H]1O` [adenosine], the inotropic effect (isolated dog heart) is given as “negatively inotropic”.
For `Nc1ccn([C@@H]2O[C@H](CO)[C@@H](O)[C@H]2O)c(=O)n1` [cytidine], the “myocardial cytosine nucleotide levels” value (isolated rat heart; 30 minute supply of cytidine) is given as “significantly increased”, the “conversion of cytidine taken up into uridine nucleotides” value (isolated rat heart) is given as “Very little” and the brain uptake (brain) is given as “not very readily taken up by the brain”. For the same compound, the “specific activity of liver homogenates” value [6] was “increased”, the “muscular concentrations of Krebs cycle intermediates” value (skeletal muscles) was “affect the muscular concentrations of Krebs cycle intermediates” and the inotropic effect (isolated dog heart) was “negatively inotropic”.
For `O=C[C@H](O)[C@@H](O)[C@H](O)[C@H](O)CO` [glucose], the “contractability and extensibility of atrial tissue” value (atrial tissue) is given as “restored”.
For `Nc1nc2c(ncn2[C@@H]2O[C@H](CO)[C@@H](O)[C@H]2O)c(=O)[nH]1` [guanosine], the inotropic effect (isolated dog heart) is listed as “positive inotropic”.
For `C[C@]12CCC(=O)C=C1CC[C@@H]1[C@@H]2[C@@H](O)C[C@@]2(C)[C@H]1CC[C@]2(O)C(=O)CO` [hydrocortisone], the tyrosine-alpha-ketoglutarate activity [7] is listed as “increase”.
In the case of `OC[C@H]1O[C@@H](n2cnc3c(O)ncnc32)[C@H](O)[C@@H]1O` [inosine], the lipolysis (adipose tissue) is listed as “inhibited lipolysis”, the inotropic effect (isolated dog heart) is listed as “positive inotropic” and the glucose uptake [8] is listed as “stimulate glucose uptake”.
For `CC(C)NCC(O)c1ccc(O)c(O)c1` (stereo not shown) [isoproterenol], the “cardiac glycogen stores, myocardial UTP and UDP-glucose levels” value (myocardial glycogen; isoproterenol) is given as “depleted cardiac glycogen stores and reduced myocardial UTP and UDP-glucose levels”.
For `O=C([O-])c1cc(=O)[nH]c(=O)[nH]1.[K+]` [potassium orotate], the “mortality and myocardial function” value [5] is given as “reduced mortality and improved myocardial function” and the “resistance to adrenalin-induced myocardial necrosis” value ([5]; in vivo) is given as “increase the animal's resistance”.
In the case of `O=C[C@H](O)[C@H](O)[C@H](O)CO` [ribose], the myocardial glycogen (myocardial glycogen) is listed as “restoration of myocardial glycogen”.
For `Cc1cn([C@H]2C[C@H](O)[C@@H](CO)O2)c(=O)[nH]c1=O` [thymidine], the inotropic effect (isolated dog heart) is listed as “positive inotropic”.
For `O=c1ccn([C@@H]2O[C@H](COP(=O)(O)OP(=O)(O)O)[C@@H](O)[C@H]2O)c(=O)[nH]1` [uridine diphosphate], the “improvement of liver function” value (liver function) is listed as “improve certain aspects of liver function”.
In the case of `O=c1ccn([C@@H]2O[C@H](COP(=O)(O)O)[C@@H](O)[C@H]2O)c(=O)[nH]1` [uridine-5'-monophosphate], the “protective effect in adrenalin-induced myocardial dystrophy” value [9] is given as “protective effect”.
For `O=C(O)[C@H]1O[C@H](OP(=O)(O)OP(=O)(O)OC[C@H]2O[C@@H](n3ccc(=O)[nH]c3=O)[C@H](O)[C@@H]2O)[C@H](O)[C@@H](O)[C@@H]1O` [uridine-diphosphoglucuronic acid], the “improvement of liver function” value (liver function) is given as “improve certain aspects of liver function”.
For `O=c1ccn([C@@H]2O[C@H](CO)[C@@H](O)[C@H]2O)c(=O)[nH]1` [uridine], the “glucose uptake and glycogen synthesis” value [10] is given as “enhance glucose uptake and glycogen synthesis”, the “plasma levels of uridine” value ([11]; mouse, in vivo, po, 350 mg/kg) is given as “not perturbed” and the “elevation of plasma uridine levels” value ([11]; mouse, in vivo, po, 3500 mg/kg) is given as “observed only after oral administration of high doses”. For the same compound, the “time to return of plasma uracil to normal” value ([11]; oral uridine, 350 mg/kg) was 4 h, the myocardial glycogen (myocardial glycogen) was “restoration of myocardial glycogen” and the “myocardial ATP levels, total adenine nucleotide content, uridine nucleotide levels, glycogen content” value (isolated rat hearts [12]) was “induced restoration”. For the same compound, the anticonvulsant effect [13] was “strong protection”, the “degradation of infused uridine” value [14] was “more than 90%” and the “incorporation of glucose into glycogen” value (hepatocytes) was “increase”. For the same compound, the “tissue uridine nucleotide pools” value (hepatocytes) was “expanded”, the “rate of incorporation of uridine” value (isolated rat hearts [15]; following low-flow ischemia) was “increased twofold” and the “myocardial uracil nucleotide content” value (isolated rat hearts [15]; perfusion) was “concentration-dependent elevation”. The supporting myocardial hyperfunction (heart; in vivo) was “relatively ineffective”, the “myocardial heart-pathology benefit of uridine in intact animals” value (heart; intact (alive and free-running) animals) was “no beneficial effect” and the “difference from controls in rats developing hypertrophy of the heart” value (heart; rat, in vivo) was “no difference”. The lipolysis (adipose tissue) was “inhibited lipolysis”, the plasma uridine level [3] was “exceeded 10 micromolar” and the inotropic effect (isolated dog heart) was “positive inotropic”. The “protective effect in adrenalin-induced myocardial dystrophy” value [9] was “relatively ineffective”, the “decrease in maximal pressure upon aortic ligation” value (myocardium) was “prevented” and the glucose uptake [8] was “stimulate glucose uptake”. For the same compound, the glycogen synthesis [8] was “only uridine increased glycogen synthesis”, the “myocardial performance, glucose uptake, glycolysis, glycogen and adenine nucleotides” value (isolated rabbit hearts; hypoxic hearts) was “increased myocardial performance, glucose uptake and glycolysis and also diminished the disappearance of glycogen and adenine nucleotides” and the “glucose uptake, glycolysis, ATP and glycogen levels, myocardial performance” value (isolated rabbit hearts; propranolol-treated hearts) was “increased glucose uptake, glycolysis, levels of ATP and glycogen, as well as myocardial performance”. For the same compound, the “contractability and extensibility of atrial tissue” value (atrial tissue) was “restored”.

— patent US5583117A (priority 1993, dated 1996)
